Holding throughout (format): cell-based
In one assay the target is T1, mouse PPAR δ (Mus musculus, UniProt P35396).
T1 construct: expressed in transfected cells; host or cells: HEK293T
T1 sequence (P35396 210-438 limits assumed): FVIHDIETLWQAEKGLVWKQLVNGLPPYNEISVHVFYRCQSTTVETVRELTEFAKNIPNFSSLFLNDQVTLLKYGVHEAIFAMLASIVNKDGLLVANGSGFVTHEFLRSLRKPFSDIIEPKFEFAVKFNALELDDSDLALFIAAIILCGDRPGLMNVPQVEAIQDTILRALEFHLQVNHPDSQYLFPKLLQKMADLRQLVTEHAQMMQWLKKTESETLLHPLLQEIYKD
Kind of assay: PPAR δ transactivation (GAL4 chimera luciferase gene activation) assay. The conditions noted are these: GAL4 DNA binding domain-PPAR δ ligand binding domain chimera, pFR-Luc reporter, HEK293T cells, 20 hours incubation; read-out: Gene Activation Assay: EC50 PPAR delta. An excerpt: (§1) Measurement of PPARγ, δ, and α Transactivation Activity
(§2) Chimeric receptors were constructed in which the yeast transcription factor GAL4 DNA binding domain was fused to the ligand binding domain of either mouse PPARγ, mouse PPAR δ or mouse PPAR α in order to assess the ability of the compounds of the present invention to activate gene expression in a PPAR-dependent manner. The chimeric receptor expression plasmids (GAL4-nPPARγ, GAL4-mPPAR δ and GAL4-PPAR α) and the reporter plasmid containing 5×GAL4 binding site (pFR-Luc, obtained from Stratagene) were transfected into HEK293T cells using the Lipofectamine 2000 reagent (Invitrogen), according to the manufacturers instructions. Six hours after transfection, the culture medium was renewed and the cells were incubated for 20 hours in presence of either 1) DMSO (vehicle), 2) a compound of the invention or 3) a reference compound for comparison. Rosiglitazone (obtained from WDF Pharma) was used as a reference compound for the PPARγ assay; GW501516 (prepared as described in Sznaidman et al. Bioorg. Med. Chem. Lett. (2003) 13:1517-1521) was used as a reference compound for the PPAR δ assay and GW7647 (obtained from Sigma) was used as a reference compound for the PPAR α assay. Luciferase activity was measured as a reporter of gene expression. Luciferase activity on the cell lysates using the Steady-Glo reagent was measured according to the manufacturers instructions.

The target of another assay is T2, mouse PPARγ (Mus musculus, UniProt P37238).
T2 construct: expressed in transfected cells; host or cells: HEK293T
T2 sequence (P37238 238-503 limits assumed): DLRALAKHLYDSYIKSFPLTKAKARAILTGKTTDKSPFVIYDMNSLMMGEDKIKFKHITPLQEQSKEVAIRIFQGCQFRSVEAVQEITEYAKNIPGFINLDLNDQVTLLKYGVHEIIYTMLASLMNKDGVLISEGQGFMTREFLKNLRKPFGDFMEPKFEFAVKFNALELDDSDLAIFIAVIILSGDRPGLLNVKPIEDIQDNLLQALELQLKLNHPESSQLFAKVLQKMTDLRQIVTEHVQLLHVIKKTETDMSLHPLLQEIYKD
Kind of assay: PPARγ transactivation (GAL4 chimera luciferase gene activation) assay. To be noted: GAL4 DNA binding domain-PPARγ ligand binding domain chimera, pFR-Luc reporter, HEK293T cells, 20 hours incubation.
Description: as §1, §2

Another assay addresses T3, mouse PPAR α (Mus musculus, UniProt P23204).
T3 construct: expressed in transfected cells; host or cells: HEK293T
T3 sequence (P23204 239-466 limits assumed): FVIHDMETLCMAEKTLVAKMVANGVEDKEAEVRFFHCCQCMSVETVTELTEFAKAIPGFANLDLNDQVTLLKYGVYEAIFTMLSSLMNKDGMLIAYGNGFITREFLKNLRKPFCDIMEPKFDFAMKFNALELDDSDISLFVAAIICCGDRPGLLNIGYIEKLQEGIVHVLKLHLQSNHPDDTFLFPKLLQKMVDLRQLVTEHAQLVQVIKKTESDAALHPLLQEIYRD
Kind of assay: PPAR α transactivation (GAL4 chimera luciferase gene activation) assay. The conditions noted are these: GAL4 DNA binding domain-PPAR α ligand binding domain chimera, pFR-Luc reporter, HEK293T cells, 20 hours incubation; read-out: Gene Activation Assay: EC50 PPAR alpha.
Description: as §1, §2

The mark [1] stands for this setting: read-out: Gene Activation Assay: EC50 PPAR gamma.

Like-named read-outs stand apart in the source and are kept apart here.

Regarding `Cc1cc(SCc2nn(-c3ccc(C(F)(F)F)cc3)nc2C)ccc1OCC(=O)O` [Compound 100, {2-Methyl-4-[5-methyl-2-(4-trifluoromethyl-phenyl)-2H-[1,2,3]triazol-4-ylmethylsulfanyl]-phenoxy}-acetic acid], the figures for the EC50 at mouse PPAR δ, on mouse PPARγ (setting [1]) and on mouse PPAR α were not above 10 µM, more than 30 µM and more than 10 µM, respectively.

For the compound `Cc1cc(SCc2nn(-c3ccc(C(F)(F)F)cc3)nc2C)ccc1OC(C)C(=O)O` (stereo not drawn) [Compound 110, 2-{2-Methyl-4-[5-methyl-2-(4-trifluoromethyl-phenyl)-2H-[1,2,3]triazol-4-ylmethylsulfanyl]-phenoxy}-propionic acid], the EC50 on mouse PPAR δ, on mouse PPARγ (setting [1]) and at mouse PPAR α was not above 10 µM throughout.

Regarding `Cc1cc(SCc2nn(-c3ccc(C(F)(F)F)cc3)nc2C)ccc1OC(C)(C)C(=O)O` [Compound 210, 2-Methyl-2-{2-methyl-4-[5-methyl-2-(4-trifluoromethyl-phenyl)-2H-[1,2,3]triazol-4-ylmethylsulfanyl]-phenoxy}-propionic acid], the EC50 at mouse PPAR δ is not above 10 µM; at mouse PPARγ (read-out: Gene Activation Assay: EC50 PPAR gamma (number printed instead of a symbol)), 10 µM; at mouse PPAR α, not above 10 µM.

Take `Cc1cc(SCc2nn(-c3ccc(C(F)(F)F)cc3)nc2C(C)C)ccc1OCC(=O)O` [Compound 320, {4-[5-Isopropyl-2-(4-trifluoromethyl-phenyl)-2H-[1,2,3]triazol-4-ylmethylsulfanyl]-2-methyl-phenoxy}-acetic acid]: the results for the EC50 on mouse PPAR δ, at mouse PPARγ (setting [1]) and at mouse PPAR α were not above 10 µM, more than 30 µM and more than 10 µM, respectively.

In the case of `Cc1cc(SCc2nn(-c3ccc(C(F)(F)F)cc3)nc2-c2ccccc2)ccc1OCC(=O)O` [Compound 340, {2-Methyl-4-[5-phenyl-2-(4-trifluoromethyl-phenyl)-2H-[1,2,3]triazol-4-ylmethylsulfanyl]-phenoxy}-acetic acid], the EC50 on mouse PPAR δ was not above 10 µM; on mouse PPARγ (setting [1]) it was more than 30 µM; on mouse PPAR α, not above 10 µM.

Consider `Cc1cc(SCc2nn(-c3ccc(C(F)(F)F)cc3)nc2C(F)(F)F)ccc1OCC(=O)O` [Compound 360, {2-Methyl-4-[5-trifluoromethyl-2-(4-trifluoromethyl-phenyl)-2H-[1,2,3]triazol-4-ylmethylsulfanyl]-phenoxy}-acetic acid], for which the EC50 is not above 10 µM on mouse PPAR δ, more than 30 µM on mouse PPARγ (setting [1]) and more than 10 µM on mouse PPAR α.

With `COc1ccc(-n2nc(C)c(CSc3ccc(OCC(=O)O)c(C)c3)n2)cc1` [Compound 440, {4-[2-(4-Methoxy-phenyl)-5-methyl-2H-[1,2,3]triazol-4-ylmethylsulfanyl]-2-methyl-phenoxy}-acetic acid], the EC50 is not above 10 µM on mouse PPAR δ, more than 10 µM on mouse PPARγ (setting [1]) and more than 10 µM on mouse PPAR α.

For `Cc1cc(SCc2nn(-c3cccc(C(F)(F)F)c3)nc2C)ccc1OCC(=O)O` [Compound 480, {2-Methyl-4-[5-methyl-2-(3-trifluoromethyl-phenyl)-2H-[1,2,3]triazol-4-ylmethylsulfanyl]-phenoxy}-acetic acid], the EC50 on mouse PPAR δ was not above 10 µM; at mouse PPARγ (setting [1]), more than 10 µM; at mouse PPAR α it was not above 10 µM.

`Cc1cc(SCCc2nn(-c3ccc(C(F)(F)F)cc3)nc2C)ccc1OCC(=O)O` [Compound 580, (2-Methyl-4-{2-[5-methyl-2-(4-trifluoromethyl-phenyl)-2H-[1,2,3]triazol-4-yl]-ethylsulfanyl}-phenoxy)-acetic acid]: the EC50 is not above 10 µM on mouse PPAR δ, more than 30 µM on mouse PPARγ (setting [1]) and not above 10 µM on mouse PPAR α.

Regarding `Cc1cc(SCc2nn(-c3ccc(Cl)c(Cl)c3)nc2C)ccc1OCC(=O)O` [Compound 640, {4-[2-(3,4-Dichloro-phenyl)-5-methyl-2H-[1,2,3]triazol-4-ylmethylsulfanyl]-2-methyl-phenoxy}-acetic acid], the values for the EC50 at mouse PPAR δ, at mouse PPARγ (setting [1]) and on mouse PPAR α were not above 10 µM, more than 30 µM and more than 10 µM, respectively.

For the compound `CCCc1cc(CC(=O)O)ccc1OCc1nn(-c2ccc(C(F)(F)F)cc2)nc1C` [Compound 660, {3-Propyl-4-[5-methyl-2-(4-trifluoromethyl-phenyl)-2H-[1,2,3]triazol-4-ylmethoxy]-phenyl}-acetic acid], the EC50 was not above 10 µM on mouse PPAR δ, more than 30 µM at mouse PPARγ (setting [1]) and more than 30 µM at mouse PPAR α.

Regarding `Cc1nn(-c2ccc(C(F)(F)F)cc2)nc1COc1ccc(CC(=O)O)cc1` [Compound 670], the EC50 at mouse PPAR δ is not above 10 µM; at mouse PPARγ (setting [1]), more than 30 µM; at mouse PPAR α, more than 10 µM.
